This note sets out measurements from patent US11229623B2 (GlaxoSmithKline Intellectual Property (No.2) Limited, priority 2016, dated 2022).

Structures are written as SMILES.

This assay deals with T1, human TRPV4 (Homo sapiens, UniProt Q9HBA0).
T1 construct: expressed in transfected cells; host or cells: BHK/AC9 cells transduced with BacMam virus
T1 sequence (Q9HBA0 whole entry): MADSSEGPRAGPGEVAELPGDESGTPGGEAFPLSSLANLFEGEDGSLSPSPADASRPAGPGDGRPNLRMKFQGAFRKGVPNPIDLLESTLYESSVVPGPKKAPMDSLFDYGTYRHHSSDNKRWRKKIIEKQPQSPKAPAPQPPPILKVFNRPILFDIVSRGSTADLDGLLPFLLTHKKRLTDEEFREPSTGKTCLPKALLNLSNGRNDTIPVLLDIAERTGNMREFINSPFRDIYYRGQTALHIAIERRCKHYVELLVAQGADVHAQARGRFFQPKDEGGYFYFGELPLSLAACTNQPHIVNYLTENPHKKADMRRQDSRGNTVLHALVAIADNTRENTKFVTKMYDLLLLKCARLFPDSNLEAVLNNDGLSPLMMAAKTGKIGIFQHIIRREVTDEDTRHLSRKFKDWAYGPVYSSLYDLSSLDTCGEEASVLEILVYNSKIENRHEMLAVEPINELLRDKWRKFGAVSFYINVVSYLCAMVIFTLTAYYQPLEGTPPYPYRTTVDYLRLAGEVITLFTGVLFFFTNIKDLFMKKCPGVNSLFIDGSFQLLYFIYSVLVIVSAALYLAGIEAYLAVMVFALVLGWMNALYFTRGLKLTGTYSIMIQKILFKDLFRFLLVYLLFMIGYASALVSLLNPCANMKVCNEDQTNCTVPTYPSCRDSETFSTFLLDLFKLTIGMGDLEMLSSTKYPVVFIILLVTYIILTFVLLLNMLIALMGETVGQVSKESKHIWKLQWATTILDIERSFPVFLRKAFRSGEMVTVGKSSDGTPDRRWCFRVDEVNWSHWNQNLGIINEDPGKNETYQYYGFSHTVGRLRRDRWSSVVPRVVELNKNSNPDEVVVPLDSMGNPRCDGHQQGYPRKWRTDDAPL
In words: FLIPR assay for hTRPV4 expressed in BHK cells: inhibition of Agonist Compound-induced calcium signal. The assay is classed as cell-based. Conditions: hTRPV4 in BHK/AC9 cells, FLIPR calcium signal, agonist at EC80; reported as range class; read-out: IC50. The method, boiled down:
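BHK/AC9 cells transduced with BacMam human TRPV4 (MOI 78), plated 15,000 per well and cultured 24 h at 37° C. Loaded with 2 μM Fluo-4 AM plus 500 μM Brilliant Black in HBSS for 1-1.5 h at room temperature in the dark; intracellular calcium signal read by FLIPR fluorescence.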
Consider `N#Cc1cc(C(F)(F)F)ccc1S(=O)(=O)N1C[C@H](Oc2ccc(Cl)c(Cl)c2)[C@](O)(CO)C1` [Example 39, 2-(((3R,4S)-4-(3,4-dichlorophenoxy)-3-hydroxy-3-(hydroxymethyl)pyrrolidin-1-yl)sulfonyl)-5-(trifluoromethyl)benzonitrile], for which the IC50 fell in the range of 10 to 100 nM. The figure for `COc1ccc(O[C@H]2CN(S(=O)(=O)c3ccc(C(F)(F)F)cc3C#N)C[C@@]2(O)CO)cc1` [Example 52, 2-(((3R,4S)-3-hydroxy-3-(hydroxymethyl)-4-(4-methoxyphenoxy)pyrrolidin-1-yl)sulfonyl)-5-(trifluoromethyl)benzonitrile] is 10 to 100 nM.

In the case of `N#Cc1ccc(O[C@H]2CN(S(=O)(=O)c3ccc(C(F)F)cc3)C[C@@]2(O)CO)cc1F` [Example 98, 4-(((3S,4R)-1-((4-(difluoromethyl)phenyl)sulfonyl)-4-hydroxy-4-(hydroxymethyl)pyrrolidin-3-yl)oxy)-2-fluorobenzonitrile], the IC50 fell in the range of 10 to 100 nM. In the case of `N#Cc1cc(Cl)ccc1S(=O)(=O)N1C[C@H](Oc2ccc(Cl)cc2)[C@](O)(CO)C1` [Example 154, 5-chloro-2-(((3R,4S)-4-(4-chlorophenoxy)-3-hydroxy-3-(hydroxymethyl)pyrrolidin-1-yl)sulfonyl)benzonitrile], the IC50 lay in the range of 0.1 to 10 nM. For `C[C@H](N)[C@]1(O)CN(S(=O)(=O)c2ccc(Cl)cn2)C[C@@H]1Oc1ccc(C#N)c(F)c1` [Example 257, 4-(((3S,4R)-4-((S)-1-aminoethyl)-1-((5-chloropyridin-2-yl)sulfonyl)-4-hydroxypyrrolidin-3-yl)oxy)-2-fluorobenzonitrile, 2,2,2-trifluoroacetate], the IC50 is 10 to 100 nM. The figure for `N#Cc1ccc(O[C@H]2CN(S(=O)(=O)c3cccnc3C#N)C[C@@]2(O)CO)cc1F` [Example 62, 3-(((3R,4S)-4-(4-cyano-3-fluorophenoxy)-3-hydroxy-3-(hydroxymethyl)pyrrolidin-1-yl)sulfonyl)picolinonitrile] is 0.1 to 10 nM. On to `CC(C)C[C@H](O)[C@]1(O)CN(S(=O)(=O)c2ccc(Cl)cn2)C[C@@H]1Oc1ccc(C#N)c(F)c1` [Example 192, 4-(((3S,4R)-1-((5-chloropyridin-2-yl)sulfonyl)-4-hydroxy-4-((S)-1-hydroxy-3-methylbutyl)pyrrolidin-3-yl)oxy)-2-fluorobenzonitrile], for which the IC50 is 10 to 100 nM.

Regarding `N#Cc1cc(F)ccc1S(=O)(=O)N1C[C@H](Oc2ccc(Cl)cc2)[C@](O)(CO)C1` [Example 155, 2-(((3R,4S)-4-(4-chlorophenoxy)-3-hydroxy-3-(hydroxymethyl)pyrrolidin-1-yl)sulfonyl)-5-fluorobenzonitrile], the IC50 lay in the range of 0.1 to 10 nM. In the case of `N#Cc1ccc(O[C@H]2CN(S(=O)(=O)c3ccc(Br)nc3)C[C@@]2(O)CO)cc1F` [Example 99, 4-(((3S,4R)-1-((6-bromopyridin-3-yl)sulfonyl)-4-hydroxy-4-(hydroxymethyl)pyrrolidin-3-yl)oxy)-2-fluorobenzonitrile], the IC50 lay within 10 to 100 nM. For `N#Cc1ccc(O[C@H]2CN(S(=O)(=O)c3ccc(C(F)(F)F)cc3Cl)C[C@@]2(O)CO)cn1` [Example 74, 5-(((3S,4R)-1-((2-chloro-4-(trifluoromethyl)phenyl)sulfonyl)-4-hydroxy-4-(hydroxymethyl)pyrrolidin-3-yl)oxy)picolinonitrile], the IC50 lay in the range of 10 to 100 nM. The figure for `CCCCOc1cc(C#N)c(F)cc1O[C@H]1CN(S(=O)(=O)c2ccc(C(F)(F)F)cc2C#N)C[C@@]1(O)CO` [Example 164, 5-butoxy-4-(((3S,4R)-1-((2-cyano-4-(trifluoromethyl)phenyl)sulfonyl)-4-hydroxy-4-(hydroxymethyl)pyrrolidin-3-yl)oxy)-2-fluorobenzonitrile] is 0.1 to 10 nM. For the compound `C[C@@H](O)[C@]1(O)CN(S(=O)(=O)c2ccc(F)cn2)C[C@@H]1Oc1ccc(C#N)c(F)c1` [Example 207, 2-fluoro-4-(((3S,4R)-1-((5-fluoropyridin-2-yl)sulfonyl)-4-hydroxy-4-((R)-1-hydroxyethyl)pyrrolidin-3-yl)oxy)benzonitrile], the IC50 lay within 10 to 100 nM. The figure for `C[C@@H](O)[C@]1(O)CN(S(=O)(=O)c2ccc(OC(F)(F)F)cn2)C[C@@H]1Oc1ccc(C#N)c(F)c1` [Example 210, 2-fluoro-4-(((3S,4R)-4-hydroxy-4-((R)-1-hydroxyethyl)-1-((5-(trifluoromethoxy)pyridin-2-yl)sulfonyl)pyrrolidin-3-yl)oxy)benzonitrile] is 10 to 100 nM; for `COc1ccc(O[C@H]2CN(S(=O)(=O)c3ccc(C(F)(F)F)cc3C#N)C[C@@]2(O)CO)cc1F` [Example 43, 2-(((3R,4S)-4-(3-fluoro-4-methoxyphenoxy)-3-hydroxy-3-(hydroxymethyl)pyrrolidin-1-yl)sulfonyl)-5-(trifluoromethyl)benzonitrile] it is 10 to 100 nM; for `N#Cc1ccc(O[C@H]2CN(S(=O)(=O)c3ccc(F)cc3C#N)C[C@]2(O)CO)cc1F` [Example 138, 4-(((3S,4S)-1-((2-cyano-4-fluorophenyl)sulfonyl)-4-hydroxy-4-(hydroxymethyl)pyrrolidin-3-yl)oxy)-2-fluorobenzonitrile] it is 0.1 to 10 nM. For `N#Cc1ccc(O[C@H]2CN(S(=O)(=O)c3ccc(C(F)(F)F)cc3C#N)C[C@]2(O)CO)cc1F` [Example 135, 4-(((3S,4S)-1-((2-cyano-4-(trifluoromethyl)phenyl)sulfonyl)-4-hydroxy-4-(hydroxymethyl)pyrrolidin-3-yl)oxy)-2-fluorobenzonitrile], the IC50 was in the range of 0.1 to 10 nM.

Regarding `C[C@H](O)[C@]1(O)CN(S(=O)(=O)c2ccc(Cl)cc2C#N)C[C@@H]1Oc1ccc(C#N)c(F)c1` [Example 202, 4-(((3S,4R)-1-((4-chloro-2-cyanophenyl)sulfonyl)-4-hydroxy-4-((S)-1-hydroxyethyl)pyrrolidin-3-yl)oxy)-2-fluorobenzonitrile], the IC50 fell in the range of 0.1 to 10 nM. Take `N#Cc1ccc(O[C@H]2CN(S(=O)(=O)c3ccc(OCC(F)(F)F)nn3)C[C@@]2(O)CO)cc1F` [Example 133, 2-fluoro-4-(((3S,4R)-4-hydroxy-4-(hydroxymethyl)-1-((6-(2,2,2-trifluoroethoxy)pyridazin-3-yl)sulfonyl)pyrrolidin-3-yl)oxy)benzonitrile]: the IC50 lay within 10 to 100 nM. In the case of `N#Cc1ccc(S(=O)(=O)N2C[C@H](Oc3cc(F)c(C#N)cc3OCC(F)(F)F)[C@](O)(CO)C2)cn1` [Example 174, 5-(((3R,4S)-4-(4-cyano-5-fluoro-2-(2,2,2-trifluoroethoxy)phenoxy)-3-hydroxy-3-(hydroxymethyl)pyrrolidin-1-yl)sulfonyl) picolinonitrile], the IC50 lay within 0.1 to 10 nM. Regarding `N#Cc1ccc(O[C@H]2CN(S(=O)(=O)c3ccc(C(F)(F)F)cc3Cl)C[C@@]2(O)CO)cc1F` [Example 63, 4-(((3S,4R)-1-((2-chloro-4-(trifluoromethyl)phenyl)sulfonyl)-4-hydroxy-4-(hydroxymethyl)pyrrolidin-3-yl)oxy)-2-fluorobenzonitrile], the IC50 lay within 0.1 to 10 nM. Take `N#Cc1ccc(O[C@H]2CN(S(=O)(=O)c3ccc(C(F)(F)F)cn3)C[C@@]2(O)CO)cc1F` [Example 84, 2-fluoro-4-(((3S,4R)-4-hydroxy-4-(hydroxymethyl)-1-((5-(trifluoromethyl)pyridin-2-yl)sulfonyl)pyrrolidin-3-yl)oxy)benzonitrile]: the half-maximal inhibitory concentration (IC50) was in the range of 10 to 100 nM. In the case of `Cc1ccc(S(=O)(=O)N2C[C@H](Oc3ccc(C#N)c(F)c3)[C@](O)(CO)C2)c(C#N)c1` [Example 216, 4-(((3S,4R)-1-((2-cyano-4-methylphenyl)sulfonyl)-4-hydroxy-4-(hydroxymethyl)pyrrolidin-3-yl)oxy)-2-fluorobenzonitrile], the IC50 fell in the range of 0.1 to 10 nM. In the case of `N#Cc1ccc(S(=O)(=O)N2C[C@H](Oc3ccc(C#N)c(F)c3)[C@](O)(CN)C2)cn1` [Example 243, 5-(((3S,4S)-3-(aminomethyl)-4-(4-cyano-3-fluorophenoxy)-3-hydroxpyrrolidin-1-yl)sulfonyl) picolinonitrile, 2,2,2-trifluoroacetate], the IC50 lay within 10 to 100 nM. In the case of `CCC[C@@H](O)[C@]1(O)CN(S(=O)(=O)c2ccc(Cl)cn2)C[C@@H]1Oc1ccc(C#N)c(F)c1` [Example 198, 4-(((3S,4R)-1-((5-chloropyridin-2-yl)sulfonyl)-4-hydroxy-4-((R)-1-hydroxybutyl)pyrrolidin-3-yl)oxy)-2-fluorobenzonitrile] it was 0.1 to 10 nM. In the case of `CC[C@@H](O)[C@]1(O)CN(S(=O)(=O)c2ccc(Cl)cn2)C[C@@H]1Oc1ccc(C#N)c(F)c1` [Example 196, 4-(((3S,4R)-1-((5-chloropyridin-2-yl)sulfonyl)-4-hydroxy-4-((R)-1-hydroxypropyl)pyrrolidin-3-yl)oxy)-2-fluorobenzonitrile] it was 0.1 to 10 nM; in that of `CCOc1cc(C#N)ccc1O[C@H]1CN(S(=O)(=O)c2ccc(C(F)(F)F)cc2C#N)C[C@@]1(O)CO` [Example 12, 2-(((3R,4S)-4-(4-cyano-2-ethoxyphenoxy)-3-hydroxy-3-(hydroxymethyl)pyrrolidin-1-yl)sulfonyl)-5-(trifluoromethyl)benzonitrile], 0.1 to 10 nM. As to `N#CCc1cccc(O[C@H]2CN(S(=O)(=O)c3ccc(C(F)(F)F)cc3C#N)C[C@@]2(O)CO)c1` [Example 33, 2-(((3R,4S)-4-(3-(cyanomethyl)phenoxy)-3-hydroxy-3-(hydroxymethyl)pyrrolidin-1-yl)sulfonyl)-5-(trifluoromethyl)benzonitrile], the IC50 is 10 to 100 nM. Regarding `CC(C)COc1cc(C#N)ccc1O[C@H]1CN(S(=O)(=O)c2ccc(C(F)(F)F)cc2C#N)C[C@@]1(O)CO` [Example 170, 2-(((3R,4S)-4-(4-cyano-2-isobutoxyphenoxy)-3-hydroxy-3-(hydroxymethyl)pyrrolidin-1-yl)sulfonyl)-5-(trifluoromethyl)benzonitrile], the IC50 lay within 0.1 to 10 nM.
